Literature values, collected in patent publication US8183241B2, “2-oxo-1-pyrrolidine derivatives” (UCB Pharma, S.A., priority 2005, dated 2012).

Conditions: Eur. J. Pharmacol. (1992), 222, 193-203

## CC[C@H](C(N)=O)N1CCCC1=O [(R)-α-ethyl-2-oxo-1-pyrrolidine acetamide]
  activity in the treatment of epilepsy: completely lacks activity

## CC[C@@H](C(N)=O)N1CCCC1=O [Levetiracetam, (S)-α-ethyl-2-oxo-1-pyrrolidine acetamide]
  activity in the treatment of epilepsy: effective in the treatment of epilepsy
